# Read-outs that look alike come from different tables or passages of the source.
# Legend:
# [1] = biological target: T1, rabbit skeletal muscle myosin S1 (SkS1) (Oryctolagus cuniculus, UniProt Q28641); test: Steady state MgATPase, NADH-coupled assay, SkS1; assay type: biochemical
# T1 construct: SkS1 (rabbit skeletal S1 fragment); from tissue; host or cells: rabbit skeletal muscle
# Protocol: MgATPase activities of 500 nM (for basal ATPase) or 50 nM (for actin activated ATPase) SkS1 (rabbit skeletal S1 fragment) 23 and 1 μM (for basal ATPase) or 300 nM (for actin activated ATPase) DdMD were measured at increasing concentrations of neurelaxin-A in the absence or in the presence of 45 μM actin for SkS1 or 15 μM actin for DdMD. Measurements were carried out using a pyruvate kinase/lactate dehydrogenase coupled assay (NADH-coupled assay) (Kovacs M. et al., J. Biol. Chem. 2004, 279 (34), pp 35557-35563) at 25° C. or 20° C. in case of SkS1 or DdMD, respectively. Myosin and actin together with the indicated concentration of the inhibitor were pre-incubated for 5 minutes at room temperature and the measurements were initiated with 1 mM ATP. Data were corrected for background ATPase activity of actin. G-actin was prepared accordingly from rabbit skeletal muscle (Spudich, J. A. & Watt, S.; The Journal of Biological Chemistry 246, 1971, pp 4866-4871) and polymerized by 2 mM MgCl2 for 1 hour at room temperature. Measurements were performed in low salt buffer containing 5 mM HEPES, 2 mM MgCl2, 0.1 mM EGTA and 2 mM DTT at pH 7.2 or assay buffer containing 20 mM HEPES, 40 mM NaCl, 4 mM MgCl2 at pH 7.3 for basal ATPase activity measurements with DdMD.
# The basal and actin activated ATPase activities of rabbit skeletal muscle myosin S1 (SkS1) and Dictyostelium discoideum myosin 2 motor domain (DdMD) were measured at increasing concentrations of neurelaxin-A (FIGS. 3A and 3B).
# HeLa cells = test: HeLa wound healing (motility) assay; assay type: cell-based, human; conditions: 20 μM, after 24 h, uncoated glass; control 30.6±5.4%
# Protocol: For wound healing assays, 200 μl of HeLa cells were plated on 35 mm borosilicate glass imaging dishes at 300,000 cells/ml concentrations and incubated for 24 hours. Prior to wounding, cells were incubated in 20 μM of neurelaxin-A for an hour. After one hour, scratches were made with pipette tips in monolayer cultures and the motility of cells for occupying the wound was monitored for 24 hours with a Foculus Digital Camera (IEEE1394). Analysis of cell motility was carried out by ImageJ, by measuring the distance between two lines fitted on the two sides of the approaching cell edges created by the pipette tips.
# To test the effect of neurelaxin-A on the motility of HeLa cells on uncoated glass surface, wound-healing assays were carried out in the absence and in the presence of 20 μM concentrations of the inhibitor.
# After 24 h, the percent of migration was measured for each sample. The control corresponds to a sample in the absence of inhibitor.
# [2] = test system: EGFP-α-tubulin H2B-mCherry HeLa Kyoto cells; test: HeLa cell toxicity, 12-hour confocal time-lapse imaging; assay type: cell-based, human; conditions: 50 μM, 12 hours imaging
# Protocol: For phototoxicity experiments, confocal time-lapse imaging of HeLa Kyoto H2B-mCherry eGFP-α-tubulin cells for 12 hours was performed in DMEM further supplemented with 25 mM HEPES in order to achieve CO2 independent media. Confocal time-lapse imaging was performed on a Zeiss LSM 710 using a Plan Apo 20×/0.8 objective, with the following parameters: 2% laser intensity at λexc=488 nm, 3% laser intensity at λexc=543 nm, 1.2× zoom, average 4, line step 1, 1000×1000 pixels, 0.35 μm pixel size, 0.65 μs dwell time, 3 slice/z-stack with 7 μm between slices at every 10 minutes.
# To test the cytotoxicity of neurelaxin-A in live-cell fluorescence microscopy, time-lapse EGFP-α-tubulin H2B-mCherry labeled HeLa Kyoto cells were imaged in a confocal microscope (FIG. 4a).
# Cells were treated with 50 μM neurelaxin-A and imaged for 12 hours applying 3 z-sections every 10 minutes.
# zebrafish embryos = test: Zebrafish embryo toxicity test; assay type: in vivo, zebrafish (Danio rerio)
# Protocol: Transgenic Tg(−8.0cldnb:lynEGFP)^zf106 (cldnb:gfp) (Haas, P. & Gilmour, D., Developmental Cell 10, 2006, pp 673-680) zebrafish (Danio rerio) were maintained in the animal facility of Eötvös Loránd University. For the experiments investigating the skeletal and heart muscle of zebrafish, 6 dpf embryos were used. For cytotoxicity assays, 2 dpf embryos were dechorionated and placed in E3 medium (5 mM NaCl, 0.33 mM MgCl2, 0.33 mM CaCl2 and 0.17 mM KCl) complemented with the inhibitor in the indicated concentrations.578 PCT
# In order to test the cytoxicity of neurelaxin-A in a live animal model, zebrafish embryos were treated with the inhibitor at different concentrations and their development was followed for 72 hours (FIG. 4d).
# [3] = test system: cannabinoid-induced working memory loss; test: Novel object recognition (NOR) test with CP55,940; assay type: in vivo
# Protocol: In this experiment, a novel object recognition (NOR) test was performed.
# In this test animals are presented to two objects and it will explore them for a while. After, one of the objects is changed for a new and different one. Under normal circumstances animals will be attracted to the novel object and will spend more time exploring it, by comparison to the older and already known object. Animals with memory deficit will explore both objects equally.
# The synthetic cannabinoid CB1R agonist CP55,940 is administrated 1 hour prior to the familiarization step. Thirty minutes prior to the familiarization animals are either treated or not with neurelaxin-A.
# [4] = Fluorescence emission spectrum; assay type: physicochemical; conditions: 5 μM, λexc=350 nm, assay buffer 0.1% DMSO
# Protocol: Fluorescence emission spectra (λexc=350 nm) were recorded in assay buffer containing 0.1% DMSO applying the inhibitors at 5 μM concentrations. The photoconversion measurements were carried out using 5 μM neurelaxin-A in assay buffer and irradiating the samples at 480±10 nm for 0, 5, 10 and 15 minutes using a Fluorescence Spectrometer (F900, Edinburgh Instruments) equipped with a 450 W Xenon Lamp. Their absorbance spectra were measured at each time point.
# Fluorescence emission spectra (λexc.=350 nm) were recorded in assay buffer containing 0.1% DMSO comprising the inhibitor at 5 μM concentration.
# T1 sequence (Q28641 1-843 limits assumed): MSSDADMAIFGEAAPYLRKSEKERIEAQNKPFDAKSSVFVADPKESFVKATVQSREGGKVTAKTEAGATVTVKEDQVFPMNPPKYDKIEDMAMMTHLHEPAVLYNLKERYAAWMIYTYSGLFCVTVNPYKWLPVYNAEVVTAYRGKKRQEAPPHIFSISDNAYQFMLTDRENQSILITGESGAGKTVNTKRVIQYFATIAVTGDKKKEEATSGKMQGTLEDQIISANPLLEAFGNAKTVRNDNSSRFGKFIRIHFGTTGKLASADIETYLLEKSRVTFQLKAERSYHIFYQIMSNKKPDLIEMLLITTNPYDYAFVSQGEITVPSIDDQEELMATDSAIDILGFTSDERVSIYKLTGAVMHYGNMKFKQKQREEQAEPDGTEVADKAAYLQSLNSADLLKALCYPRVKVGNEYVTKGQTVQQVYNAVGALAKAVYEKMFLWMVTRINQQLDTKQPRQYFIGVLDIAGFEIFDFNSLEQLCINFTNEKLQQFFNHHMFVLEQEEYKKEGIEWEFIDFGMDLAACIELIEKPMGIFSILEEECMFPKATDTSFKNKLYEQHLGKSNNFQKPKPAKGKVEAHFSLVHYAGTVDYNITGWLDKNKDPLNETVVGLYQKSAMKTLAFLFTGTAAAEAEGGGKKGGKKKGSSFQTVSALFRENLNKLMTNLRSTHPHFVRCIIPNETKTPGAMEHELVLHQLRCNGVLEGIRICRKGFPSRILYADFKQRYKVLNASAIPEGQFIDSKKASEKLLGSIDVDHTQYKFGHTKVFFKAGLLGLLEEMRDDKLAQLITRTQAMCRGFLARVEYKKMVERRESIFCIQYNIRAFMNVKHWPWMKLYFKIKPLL
# T1 sequence (P02602 whole entry partner, the tested form may be a part): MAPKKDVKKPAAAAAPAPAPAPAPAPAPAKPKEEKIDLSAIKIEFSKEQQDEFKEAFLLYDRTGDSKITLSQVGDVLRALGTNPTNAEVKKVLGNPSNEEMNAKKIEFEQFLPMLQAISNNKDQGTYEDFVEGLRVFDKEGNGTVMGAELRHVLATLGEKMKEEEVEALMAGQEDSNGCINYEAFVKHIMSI
smiles,measurement,setting,value
"Cc1ccc2c(c1)C(=O)C1(O)CCN(c3ccc(N)cc3)C1=N2 (centres unmarked) [Neurelaxin-A, 1-(4-aminophenyl)-3a-hydroxy-6-methyl-3,3a-dihydro-1H-pyrrolo[2,3-b]quinolin-4(2H)-one]","maximal extent of inhibition, actin activated ATPase of SkS1",[1]; actin activated,98-100%
same,IC50,"[1]; actin activated, 50 nM SkS1, 45 μM actin, 25° C., read-out: IC50 actin activated ATPase activity of SkS1",0.47 ± 0.06 µM
same,"maximal extent of inhibition, basal ATPase of SkS1",[1]; basal,98-100%
same,IC50,"[1]; basal, 500 nM SkS1, 25° C., read-out: IC50 basal ATPase of SkS1",1.3 ± 0.1 µM
same,relative migration of HeLa cells (100% = total diameter of the wound),HeLa cells,62.6±3.6%
same,signs of toxicity in HeLa Kyoto cells,[2],did not show any signs of toxicity
same,visible damage in zebrafish embryos,zebrafish embryos; 72 hours,does not cause any visible damage
same,signs of cytotoxicity in zebrafish embryos,"zebrafish embryos; after 40 hours, even at high concentrations",did not show any signs of cytotoxicity
same,NOR test: effect on memory without cannabinoid,"[3]; animals non-treated with CP55,940",does not impact negatively the memory
same,NOR test: memory after cannabinoid exposure,"[3]; pre-treated animals, CP55,940 exposure",are not affected by the cannabinoid exposure
same,fluorescence signal,[4],no fluorescence signal

# Reference: patent publication US10858357B2, “Water-soluble myosin 2 inhibitors for the treatment of neurological, neuropathic or psychiatric diseases” (PARIS SCIENCES ET LETTRES-QUARTIER LATIN, priority 2016, dated 2020)
